Test systems include NCI-H522 lung; OVCAR-4 ovarian; RPMI-8226 leukemia; SK-OV-3 ovarian; SNB-19 CNS; CAKI-1 renal; IGROV1 ovarian.
Common to all, as to assay: growth of human tumour cells (NCI), 48 h

Here are results for 15 molecules from PubChem BioAssay (NCI).

Each structure is given as a SMILES string.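 Compound exposure: 48 hours, 5 concentrations, 96-well plates. Here, GI50 denotes the concentration required for 50% inhibition of growth. Definition used: TGI = concentration required for complete inhibition of growth.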

With `COc1ccc(NC(=O)C(=O)NNC(=O)c2sc(NNC(C)=O)nc2C)c([N+](=O)[O-])c1`, the TGI with NCI-H522 lung, in the assay on OVCAR-4 ovarian, in the assay with RPMI-8226 leukemia, with SK-OV-3 ovarian and in the assay with SNB-19 CNS was greater than 100 µM in each case.

On to `CCC(C(=O)[O-])C(=O)[O-].CCC(C(=O)[O-])C(=O)[O-].N.N.NCCCCCN.[Pt+4].[Pt+4]`, for which the GI50 in the assay on CAKI-1 renal, in the assay with IGROV1 ovarian, in the assay with NCI-H522 lung, in the assay on OVCAR-4 ovarian, with RPMI-8226 leukemia and in the assay on SK-OV-3 ovarian was greater than 100 µM each time. The GI50 in the assay with SNB-19 CNS is greater than 100 µM. For the same molecule, the TGI in the assay with CAKI-1 renal, in the assay on IGROV1 ovarian, with NCI-H522 lung, in the assay on OVCAR-4 ovarian, with RPMI-8226 leukemia and in the assay on SK-OV-3 ovarian was greater than 100 µM each time. Moreover, the TGI in the assay on SNB-19 CNS is greater than 100 µM.

Turning to `NC(=O)c1csc(C2C=CC(CO)O2)n1` (centres undefined), the TGI in the assay with CAKI-1 renal, with IGROV1 ovarian, in the assay with NCI-H522 lung, in the assay with OVCAR-4 ovarian, with RPMI-8226 leukemia and in the assay with SK-OV-3 ovarian was greater than 100 µM each time. For the same molecule, the TGI in the assay with SNB-19 CNS is greater than 100 µM.

Consider `O=C1CC2CCCCC2=C1O` (centres undefined), for which the TGI in the assay with CAKI-1 renal, with IGROV1 ovarian, with NCI-H522 lung, in the assay on OVCAR-4 ovarian, with RPMI-8226 leukemia and in the assay on SK-OV-3 ovarian was greater than 100 µM throughout. This molecule returned a TGI with SNB-19 CNS greater than 100 µM.

Consider `Cc1ccc(NC(=O)CC(=O)n2nc(-c3ccccc3)c(N=Nc3ccc(Cl)cc3)c2-c2ccccc2)cc1`, for which the TGI was greater than 100 µM in the assay on CAKI-1 renal; greater than 100 µM in the assay with IGROV1 ovarian; greater than 100 µM with OVCAR-4 ovarian; 47.8 µM in the assay on RPMI-8226 leukemia; greater than 100 µM in the assay with SK-OV-3 ovarian; greater than 100 µM in the assay on SNB-19 CNS.

Consider `C/C(=N\NC(=O)CC(=O)Nc1ccc(Cl)cc1)c1cc2ccccc2oc1=O`, for which the TGI in the assay on IGROV1 ovarian, in the assay on NCI-H522 lung, in the assay with RPMI-8226 leukemia, in the assay on SK-OV-3 ovarian and in the assay with SNB-19 CNS was greater than 100 µM in each case.

As to `Cc1ccc(NS(=O)(=O)c2cc(C(C)(C)C)ccc2OCCOCCOCCOc2ccc(C(C)(C)C)cc2S(=O)(=O)Nc2ccc(C)cc2)cc1`, the TGI in the assay with CAKI-1 renal, with IGROV1 ovarian, in the assay with OVCAR-4 ovarian, in the assay with SK-OV-3 ovarian and with SNB-19 CNS was greater than 100 µM throughout.

On to `O=C(CC/C(C/C(=N/O)c1ccc(F)cc1)=N/O)N(Cc1ccccc1)Cc1ccccc1`, for which the TGI in the assay with CAKI-1 renal, with IGROV1 ovarian, with NCI-H522 lung, in the assay with OVCAR-4 ovarian, in the assay on RPMI-8226 leukemia and in the assay on SNB-19 CNS was greater than 100 µM in each case.

For `Cc1ccc(S(=O)(=O)CNC(=S)CCCC(=S)NCS(=O)(=O)c2ccc(C)cc2)cc1`, the TGI in the assay on CAKI-1 renal, in the assay on IGROV1 ovarian, in the assay on NCI-H522 lung, in the assay on OVCAR-4 ovarian, in the assay with RPMI-8226 leukemia and in the assay on SK-OV-3 ovarian was greater than 100 µM in each case. In the assay on SNB-19 CNS, this molecule registered a TGI greater than 100 µM.

As to `CN(C)c1ccc(/C=C2\CNC/C(=C\c3ccc(N(C)C)cc3)C2=O)cc1`, the TGI in the assay with IGROV1 ovarian is 97.1 µM; in the assay on OVCAR-4 ovarian, 29.7 µM; in the assay on RPMI-8226 leukemia it was greater than 100 µM; in the assay on SK-OV-3 ovarian it was greater than 100 µM.

For `Cc1c(O)c(=O)ccn1C1OC(CO)C(O)C1O` (centres undefined), the TGI in the assay on CAKI-1 renal, with NCI-H522 lung, in the assay on OVCAR-4 ovarian, in the assay on RPMI-8226 leukemia, in the assay with SK-OV-3 ovarian and in the assay with SNB-19 CNS was greater than 100 µM throughout.

`CCOP(=O)(CC(=O)C1=C(O)C(CCCNC(=O)OC(C)(C)C)N(Cc2ccc(OC)c(OC)c2)C1=O)OCC` (centres undefined): the TGI with IGROV1 ovarian, with NCI-H522 lung, in the assay on OVCAR-4 ovarian, in the assay with RPMI-8226 leukemia and in the assay with SNB-19 CNS was greater than 100 µM in each case.

For `CC1C=C(OC(=O)c2ccccc2)C(=O)C(n2cc(F)c(=O)n(C(=O)c3ccccc3)c2=O)O1` (centres undefined), the TGI with CAKI-1 renal is 81.4 µM; in the assay on IGROV1 ovarian it was greater than 100 µM; in the assay with OVCAR-4 ovarian it was greater than 100 µM; in the assay with RPMI-8226 leukemia it was greater than 100 µM; with SK-OV-3 ovarian, greater than 100 µM; with SNB-19 CNS it was greater than 100 µM.

With `COC(=O)C1=C(C(=O)OC)C23C=CC=CC24C(C(=O)OC)=C(C(=O)OC)C4C1C3` (centres undefined), the TGI in the assay with IGROV1 ovarian, in the assay with NCI-H522 lung, with OVCAR-4 ovarian, with RPMI-8226 leukemia and in the assay on SNB-19 CNS was greater than 100 µM each time.

Take `N#C/C(=C/c1cccnc1)C(=O)c1ccccc1`: the TGI with CAKI-1 renal, in the assay with NCI-H522 lung, with OVCAR-4 ovarian, with RPMI-8226 leukemia, in the assay on SK-OV-3 ovarian and with SNB-19 CNS was greater than 100 µM in each case.
